Source: ChEMBL document CHEMBL5053524, “Novel Electrophilic Warhead Targeting a Triple-Negative Breast Cancer Driver in Live Cells Revealed by "Inverse Drug Discovery"” (J Med Chem, 2021)
Blank lines part the entries; values can stand above or below the molecule they belong to.

Key:
Bcap37 = test: Antiproliferative activity against human BcaP37 cells assessed as cell viability incubated for 24 hrs by CCk8 assay; format: functional, cell-based; details: Bcap37, 24 h
[1] = target: Glutathione S-transferase P (Homo sapiens, UniProt P09211); test: Inhibition of recombinant GSTP1 (unknown origin) using GSH substrate
MDA-MB-468 [2] = test: Antiproliferative activity agaisnt human MDA-MB-468 cells assessed as cell viability incubated for 24 hrs in presence of GSTP1 siRNA by CCK8 assay; format: functional, cell-based; details: MDA-MB-468, 24 h
MDA-MB-231 = test: Antiproliferative activity agaisnt human MDA-MB-231 cells assessed as cell viability incubated for 24 hrs by CCK8 assay; format: functional, cell-based; details: MDA-MB-231, 24 h
MDA-MB-453 = test: Antiproliferative activity agaisnt human MDA-MB-453 cells assessed as cell viability incubated for 24 hrs by CCK8 assay; format: functional, cell-based; details: MDA-MB-453, 24 h
MDA-MB-468 [3] = test: Antiproliferative activity agaisnt human MDA-MB-468 cells assessed as cell viability incubated for 24 hrs by CCK8 assay; format: functional, cell-based; details: MDA-MB-468, 24 h
MCF7 = test: Antiproliferative activity agaisnt human MCF7 cells assessed as cell viability incubated for 24 hrs by CCK8 assay; format: functional, cell-based; details: MCF7, 24 h
MDA-MB-468 [4] = test: Antiproliferative activity agaisnt human MDA-MB-468 cells assessed as cell viability incubated for 24 hrs in presence of scrambled siRNA by CCK8 assay; format: functional, cell-based; details: MDA-MB-468, 24 h

Sequence of Glutathione S-transferase P (P09211 whole entry): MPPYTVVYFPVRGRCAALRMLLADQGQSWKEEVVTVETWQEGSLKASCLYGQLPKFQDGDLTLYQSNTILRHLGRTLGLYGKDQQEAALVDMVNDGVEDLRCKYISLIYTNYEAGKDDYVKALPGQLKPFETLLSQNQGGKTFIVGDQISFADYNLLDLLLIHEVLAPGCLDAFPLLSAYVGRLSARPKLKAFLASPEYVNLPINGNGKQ

SMILES: C#CCOc1ccc(-c2c(-c3ccc(OCC#C)cc3)c2=O)cc1
IC50 (Bcap37): 26.1 µM

IC50 [1]: 0.36 µM
SMILES: O=c1cc1-c1ccc2ccccc2c1

IC50 [1]: 1.64 µM
SMILES: C#CCOc1ccc(-c2cc2=O)cc1
IC50 (Bcap37): 45 µM

IC50 [1]: 1.18 µM
SMILES: C#CCOC(=O)CCCCc1cc1=O
IC50 (Bcap37): 10.6 µM

IC50 (MDA-MB-468 [2]): 5.02 µM
IC50 (MDA-MB-231): 5.02 µM
IC50 (MDA-MB-453): 11 µM
IC50 [1]: 0.73 µM
IC50 (MDA-MB-468 [3]): 3.47 µM
IC50 (MCF7): 12.5 µM
IC50 (MDA-MB-468 [4]): 3.46 µM
SMILES: O=c1cc1-c1ccc(OCc2ccccc2)cc1

IC50 [1]: 3.2 µM
SMILES: O=c1cc1-c1ccc(OCc2ccc(-c3ccccc3)cc2)cc1

SMILES: C#CCOc1ccc(-c2c(N(CC)CC)c2=O)cc1
IC50 (Bcap37): 46.1 µM

IC50 (MDA-MB-468 [2]): 20.1 µM
IC50 (MDA-MB-231): 6.14 µM
IC50 (MDA-MB-453): 30 µM
IC50 [1]: 1.99 µM
IC50 (MDA-MB-468 [3]): 4.48 µM
IC50 (MCF7): 14.7 µM
IC50 (MDA-MB-468 [4]): 4.47 µM
SMILES: COc1ccc2cc(-c3cc3=O)ccc2c1

IC50 [1]: 0.73 µM
SMILES: O=c1cc1-c1ccc(Oc2ccccc2)cc1
